{"source": "patent US20250340881A1", "about": "“PHARMACEUTICAL COMPOSITION FOR TREATING CANCER COMPRISING FOXM1 MUTANT OR FOXM1 SHRNA” (Industry-University Cooperation Foundation Hanyang …, priority 2022, published 2025)", "format_in_all_cases": "cell-based", "key": {"A549 lung cancer cells [1]": {"test_system": "A549 lung cancer cells", "assay": "Transwell migration assay of A549 cells expressing FoxM1 WT or point mutants", "details": "Transwell, 72 hours, control set to 1; TGF-β 5 ng/ml positive control", "protocol": "To examine the effects of FoxM1 WT, phosphorylation, and non-phosphorylated point mutants on the motility of cancer cells, the migration assay was performed in A549 lung cancer cells expressing mutant proteins.\nSpecifically, 5×10^4 cells of lung cancer cells A549 expressing each of WT, phosphorylation, and non-phosphorylated point mutant of FoxM1 were seeded in an 8.0 μm, 24 well insert, and the inserts were placed in a 24-well plate after medium with 10% fetal bovine serum (FBS) was dispensed in the 24-well plate. For the positive control, 0.5 ml of RPMI1640 (10% FBS) containing 5 ng/ml of TGF-β was used. After 72 hours from cell seeding, 500 μl of 4% paraformaldehyde was dispensed, washed three times with 1×PBS, and stained with 0.05% crystal violet solution for 5 minutes. After 5 minutes, the cells were washed five times with 1×PBS, and the staining intensity was measured using the Odyssey infrared imaging system.\nSpecifically, 5×10^4 cells of lung cancer cells A549 expressing control and FoxM1 WT were seeded in an 8.0 μm, 24 well insert, and the inserts were placed in a 24-well plate after medium with 10% fetal bovine serum (FBS) was dispensed in the 24-well plate. For the positive control, 0.5 ml of RPMI1640 (10% FBS) containing 5 ng/ml of TGF-β was added and used. After 72 hours from cell seeding, 500 μl of 4% paraformaldehyde was dispensed, washed three times with 1×PBS, and stained with 0.05% crystal violet solution for 5 minutes. After 5 minutes, the cells were washed five times with 1×PBS, and the staining intensity was measured using the Odyssey infrared imaging system."}, "A549 lung cancer cells [2]": {"test_system": "A549 lung cancer cells", "assay": "Wound healing assay of A549 cells expressing FoxM1 phosphorylated point mutants", "details": "distance in the control group at 72 h set to 0%", "protocol": "To observe the effects of phosphorylation point mutations on the motility of cancer cells, a wound healing assay was performed in lung cancer cells A549 expressing FoxM1 wild type (WT), phosphorylated point mutants S25E, S361E, and S715E, and a simultaneous triple-point mutation EEE protein.\nSpecifically, cells expressing the gene of FoxM1 point mutant by the lentivirus system were seeded into 6-well plates at 1×10^5 cells/well each. 24 hours after cell seeding, scratches were made at regular intervals using a 200 μl-pipette tip. In addition, A549 cells treated with mock as a negative control (Mock) and 5 ng/ml of TGF-β as a positive control were used. […] In addition, the distance in the control group at 72 h was set to 0%, and the relative distance was represented as a bar graph (FIG. 4G)."}, "A549 lung cancer cells [3]": {"test_system": "A549 lung cancer cells", "assay": "Migration assay of TGF-β-treated A549 cells treated with peptide", "details": "TGF-β 5 ng/ml, 48 hours", "protocol": "To determine the effects of treatment of the FoxM1 non-phosphorylated point mutant peptide on cancer cell motility in the metastatic environment treated with TGF-β, a migration assay was performed.\nSpecifically, 5×10^4 cells of A549 lung cancer cells were seeded in an 8.0 μm, 24 well insert, and the inserts were placed in a 24-well plate after medium with 10% fetal bovine serum (FBS) was dispensed in the 24-well plate. For the positive control, 0.5 ml of RPMI1640 (10% FBS) containing 5 ng/ml of TGF-β was dispensed, and 5 μM of the non-phosphorylated point mutant peptide was treated simultaneously. After 48 hours from cell seeding, 500 μl of 4% paraformaldehyde was dispensed into the plate, and the plate was washed three times with 1×PBS and stained with 0.05% crystal violet solution for 5 minutes. After 5 minutes, the plate was washed with 1×PBS five times, and the stained intensity was measured using the Odyssey infrared imaging system. When the stained intensity of the control group was set to 1, the relative stained intensity of each experimental group was represented in a graph."}}, "data": [{"substance": "TGF-β [reference compound]", "values": [{"measurement": "cancer cell migration (stained intensity), increase compared to the control group", "setting": "A549 lung cancer cells [1]", "value": "approximately 4 fold"}, {"measurement": "relative healing distance (motility) at 72 h", "setting": "A549 lung cancer cells [2]", "value": 51, "unit": "%"}, {"measurement": "stained intensity (migration) compared to the control group", "setting": "A549 lung cancer cells [3]", "value": 4, "unit": "folds"}]}]}
